Experiments:
[1] = system: PLC5 cells (a hepatocellular carcinoma cell line); experiment: Cytotoxicity, MTT cell viability assay; format: cell-based; conditions: 72 h exposure
Procedure: PLC5 cells (a hepatocellular carcinoma cell line) were seeded at 5×10^3 cells per well in 96-well plates. Then, cells were exposed to SC derivatives at the indicated doses for 72 h. After that, cells were incubated with MTT (1 mg/ml) (Sigma-Aldrich, St. Louis, Mo.) for 2 h at 37° C. Cell viability was then assessed by measuring the absorbance at 570 nm using a microplate reader.

[2] = target: Recombinant SHP-1 protein (Homo sapiens, UniProt P29350); experiment: SHP-1 phosphatase activity assay (RediPlate 96 EnzChek Tyrosine Phosphatase Assay kit); format: biochemical; conditions: SC derivatives at 1 μM for 2 hr; recombinant SHP-1 25 ng; control DMSO = 100; mean±SD (N=3)
Sequence of Recombinant SHP-1 protein (P29350 whole entry): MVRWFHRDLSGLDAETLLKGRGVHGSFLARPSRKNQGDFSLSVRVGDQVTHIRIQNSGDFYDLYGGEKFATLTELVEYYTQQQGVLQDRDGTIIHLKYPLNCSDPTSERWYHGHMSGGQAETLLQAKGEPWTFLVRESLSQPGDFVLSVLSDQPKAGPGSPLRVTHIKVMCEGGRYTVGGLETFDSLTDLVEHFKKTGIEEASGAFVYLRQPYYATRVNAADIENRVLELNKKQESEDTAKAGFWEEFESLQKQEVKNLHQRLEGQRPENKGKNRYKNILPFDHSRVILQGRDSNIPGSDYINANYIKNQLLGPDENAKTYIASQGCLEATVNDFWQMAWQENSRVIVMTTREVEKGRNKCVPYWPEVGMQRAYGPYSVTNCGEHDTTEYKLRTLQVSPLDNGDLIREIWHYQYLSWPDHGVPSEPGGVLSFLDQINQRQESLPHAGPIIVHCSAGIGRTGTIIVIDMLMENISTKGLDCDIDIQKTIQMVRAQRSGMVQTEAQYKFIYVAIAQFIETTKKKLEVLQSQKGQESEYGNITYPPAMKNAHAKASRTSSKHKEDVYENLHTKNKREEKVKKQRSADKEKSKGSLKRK
Procedure: Effects of SC Derivatives on Phosphatase Activity in Recombinant SHP-1 RediPlate 96 EnzChek Tyrosine Phosphatase Assay kit (R-22067) was used for SHP-1 activity assay (Molecular Probes). Recombinant SHP-1 protein (25 ng) was reacted with SC derivatives at 1 μM for 2 hr. Then the SHP-1 phosphatase activity assay was performed according to the user's manual and the absorbance was measured at 465 nm. The control group was DMSO, which functioned as the solvent of the SC derivatives. The values were expressed by mean±SD (N=3).

SHP-1 Activity (% of control) [2] | SMILES | IC50 [1] [nM]
252.27 ± 10.78 % of control | N#Cc1ccc(Oc2cc(NC(=O)Nc3ccc(Cl)c(Oc4ccc(C#N)cc4)c3)ccc2Cl)cc1 [compound 92, 1,3-bis(4-chloro-3-(4-cyanophenoxy)phenyl)urea] | > 10000
106.27 ± 6.28 % of control | N#Cc1ccc(Oc2ccc3c(c2)N(C(=O)Nc2ccc(Cl)c(C(F)(F)F)c2)CCO3)cc1 [compound 157, N-(4-chloro-3-(trifluoromethyl)phenyl)-6-(4-cyanophenoxy)-2H-benzo[b][1,4]oxazine-4(3H)-carboxamide] | 1760
140.81 ± 2.48 % of control | C#Cc1cccc(NC(=O)Nc2ccc(Cl)c(Oc3ccc(C#N)cc3)c2)c1 [compound 140, 1-(4-chloro-3-(4-cyanophenoxy)phenyl)-3-(3-ethynylphenyl)urea] | 830
94.38 ± 11.11 % of control | Cc1ccc(NC(=O)Nc2ccc(C)c(Oc3ccc(C#N)c(Cl)c3)c2)cc1Oc1ccc(C#N)cc1 [compound 100, 1-(3-(3-chloro-4-cyanophenoxy)-4-methylphenyl)-3-(3-(4-cyanophenoxy)-4-methylphenyl)urea] | 110
126.25 ± 1.46 % of control | N#CCc1ccc(NC(=O)Nc2ccc(Oc3ccc(CC#N)cc3)cc2)cc1 [compound 169, 1-(4-(4-(cyanomethyl)phenoxy)phenyl)-3-(4-(cyanomethyl)phenyl)urea] | > 10000
142.36 ± 2.16 % of control | N#Cc1ccc(Oc2ccc3c(c2)OCCN3C(=O)Nc2cccc(C(F)(F)F)c2)cc1 [compound 163, 7-(4-cyanophenoxy)-N-(3-(trifluoromethyl)phenyl)-2H-benzo[b][1,4]oxazine-4(3H)-carboxamide] | 2510
99.11 ± 7.09 % of control | N#Cc1ccc(Oc2cc(NC(=O)Nc3ccc(Cl)c(C(F)(F)F)c3)ccc2Cl)cc1Cl [compound 179, 1-(4-chloro-3-(3-chloro-4-cyanophenoxy)phenyl)-3-(4-chloro-3-(trifluoromethyl)phenyl)urea] | 950
116.66 ± 17.26 % of control | N#CCc1ccc(Oc2ccc(NC(=O)Nc3ccc(Cl)c(C(F)(F)F)c3)cc2)cc1 [compound 171, 1-(4-chloro-3-(trifluoromethyl)phenyl)-3-(4-(4-(cyanomethyl)phenoxy)phenyl)urea] | 880
108.62 ± 10.55 % of control | Cc1ccc(NC(=O)Nc2ccc(C)c(Oc3ccc(C#N)c(F)c3)c2)cc1Oc1ccc(C#N)c(F)c1 [compound 84, 1,3-bis(3-(4-cyano-3-fluorophenoxy)-4-methylphenyl)urea] | > 10000
106.69 ± 9.47 % of control | N#Cc1ccc(Oc2cc(NC(=O)Nc3cccc(C(F)(F)F)c3)ccc2Cl)cc1Cl [compound 178, 1-(4-chloro-3-(3-chloro-4-cyanophenoxy)phenyl)-3-(3-(trifluoromethyl)phenyl)urea] | 1490
102.07 ± 3.47 % of control | N#Cc1ccc(Oc2ccc3c(c2)N(C(=O)Nc2cc(C(F)(F)F)cc(C(F)(F)F)c2)CCO3)cc1 [compound 158, N-(3,5-bis(trifluoromethyl)phenyl)-6-(4-cyanophenoxy)-2H-benzo[b][1,4]oxazine-4(3H)-carboxamide] | 3310
141.39 ± 15.44 % of control | C#Cc1cccc(NC(=O)N2CCOc3cc(Oc4ccc(C#N)cc4)ccc32)c1 [compound 162, 7-(4-cyanophenoxy)-N-(3-ethynylphenyl)-2H-benzo[b][1,4]oxazine-4(3H)-carboxamide] | 3060
146.29 ± 12.80 % of control | Cc1ccc(NC(=O)Nc2cc(Oc3ccc(C#N)cc3)ccc2F)cc1Oc1ccc(C#N)nc1 [compound 110, 1-(5-(4-cyanophenoxy)-2-fluorophenyl)-3-(3-((6-cyanopyridin-3-yl)oxy)-4-methylphenyl)urea] | 7650
215.34 ± 12.22 % of control | N#CCc1ccc(Oc2ccc(NC(=O)Nc3cc(C(F)(F)F)cc(C(F)(F)F)c3)cc2)cc1 [compound 172, 1-(3,5-bis(trifluoromethyl)phenyl)-3-(4-(4-(cyanomethyl)phenoxy)phenyl) urea] | 410
94.07 ± 0.82 % of control | Cc1ccc(Oc2ccc(C#N)cc2)cc1NC(=O)Nc1cc(Oc2ccc(C#N)cc2)ccc1C [compound 93, 1,3-bis(5-(4-cyanophenoxy)-2-methylphenyl)urea] | > 10000
153.32 ± 14.65 % of control | Cc1ccc(NC(=O)Nc2ccc(CC#N)cc2)cc1Oc1ccc(C#N)cc1 [compound 135, 1-(4-(cyanomethyl)phenyl)-3-(3-(4-cyanophenoxy)-4-methylphenyl)urea] | 1850
110.58 ± 10.14 % of control | N#CCc1ccc(NC(=O)N2CCOc3cc(Oc4ccc(C#N)cc4)ccc32)cc1 [compound 167, N-(4-(cyanomethyl)phenyl)-7-(4-cyanophenoxy)-2H-benzo[b][1,4]oxazine-4(3H)-carboxamide] | 2550
139.74 ± 4.92 % of control | Cc1ccc(NC(=O)Nc2ccc(C)c(Oc3cnc(C#N)c(F)c3)c2)cc1Oc1cnc(C#N)c(F)c1 [compound 104, 1,3-bis(3-((6-cyano-5-fluoropyridin-3-yl)oxy)-4-methylphenyl)urea] | > 10000
133.11 ± 12.03 % of control | N#Cc1ccc(Oc2ccc(NC(=O)Nc3ccc(Cl)c(C(F)(F)F)c3)c(F)c2)cc1Cl [compound 108, 1-(4-chloro-3-(trifluoromethyl)phenyl)-3-(4-(3-chloro-4-cyanophenoxy)-2-fluorophenyl)urea] | > 10000
102.24 ± 17.36 % of control | N#Cc1ccc(Oc2ccc3cccc(NC(=O)Nc4cccc5ccc(Oc6ccc(C#N)cc6)cc45)c3c2)cc1 [compound 73, 1,3-bis(7-(4-cyanophenoxy)naphthalen-1-yl)urea] | > 10000
105.52 ± 0.87 % of control | N#Cc1ccc(Oc2cc(NC(=O)Nc3cc(C(F)(F)F)cc(C(F)(F)F)c3)ccc2Cl)cc1Cl [compound 180, 1-(3,5-bis(trifluoromethyl)phenyl)-3-(4-chloro-3-(3-chloro-4-cyanophenoxy)phenyl)urea] | 780
152.29 ± 7.92 % of control | Cc1ccc(NC(=O)Nc2cccc(C(F)(F)F)c2)cc1Oc1ccc(C#N)cc1 [compound 134, 1-(3-(4-cyanophenoxy)-4-methylphenyl)-3-(3-(trifluoromethyl)phenyl)urea] | 740
194.52 ± 17.89 % of control | N#Cc1ccc(Oc2ccc(NC(=O)Nc3ccc(Cl)c(C(F)(F)F)c3)c(F)c2)cc1 [compound 96, 1-(4-chloro-3-(trifluoromethyl)phenyl)-3-(4-(4-cyanophenoxy)-2-fluorophenyl)urea] | 410
203.95 ± 30.20 % of control | Cc1cc(Oc2cc(NC(=O)Nc3cccc(C(F)(F)F)c3)ccc2Cl)ccc1C#N [compound 174, 1-(4-chloro-3-(4-cyano-3-methylphenoxy)phenyl)-3-(3-(trifluoromethyl)phenyl)urea] | 1460

— patent US10745346B2, “Agonists of protein tyrosine phosphatase SHP-1” (priority 2015, dated 2020)
